System: C3H10T½ cells
Type: cell-based, murine

NC(=O)NO [HU, hydroxyurea]
Type X collagen synthesis: induces type X collagen synthesis
